The subject of series [1] is H1N1 virus. To be noted: for 50% inhibitory concentration (IC50) against H1N1: virus, 1 h.
The test system of series [2] is endosomal acidification in H1N1-infected MDCK cells. The format is cell-based, canine.
Series [3] deals with H5N1 virus. Also noted: species or system BALB/c mice. As to conditions: mouse, in vivo.
Series [4] has as its system H1N1 virus. More on the design: species or system BALB/c mice. As to conditions: mouse, in vivo.
Series [5] has as its system H7N9 virus. Also noted: species or system BALB/c mice. As to conditions: mouse, in vivo.
For series [6], the system named is HA-cell membrane fusion in 293FT cells expressing HA. As to conditions: low pH 5.0.
For series [7] the following is noted: synthetic P9, water.
For series [8] the following is noted: mouse, in vivo.
Series [9] has as its system H1N1 viral NA.
Series [10] concerns SARS-CoV.
The conditions of series [11]: in vivo.
Series [12] addresses H1N1 viral HA (Influenza A virus, UniProt C3W5S1).
Series [13] concerns the target MERS-CoV S1 (Middle East respiratory syndrome-related coronavirus, UniProt K9N5Q8).
For series [14], the target named is MERS-CoV S2 (Middle East respiratory syndrome-related coronavirus, UniProt K9N5Q8).
Series [15] has as its system SARS-CoV. As to conditions: in vivo.
Series [16] has as its system MDCK cells. As to conditions: 24 h.
The test system of series [17] is MERS-CoV.
Series [18] relates to influenza A virus H3N2, H5N1, H7N7 and H7N9. As to conditions: H7N7 and H7N9, 24 h.

Peptide text beside a SMILES is read from it.

Sequence of MERS-CoV S2 (K9N5Q8 752-1353 limits assumed): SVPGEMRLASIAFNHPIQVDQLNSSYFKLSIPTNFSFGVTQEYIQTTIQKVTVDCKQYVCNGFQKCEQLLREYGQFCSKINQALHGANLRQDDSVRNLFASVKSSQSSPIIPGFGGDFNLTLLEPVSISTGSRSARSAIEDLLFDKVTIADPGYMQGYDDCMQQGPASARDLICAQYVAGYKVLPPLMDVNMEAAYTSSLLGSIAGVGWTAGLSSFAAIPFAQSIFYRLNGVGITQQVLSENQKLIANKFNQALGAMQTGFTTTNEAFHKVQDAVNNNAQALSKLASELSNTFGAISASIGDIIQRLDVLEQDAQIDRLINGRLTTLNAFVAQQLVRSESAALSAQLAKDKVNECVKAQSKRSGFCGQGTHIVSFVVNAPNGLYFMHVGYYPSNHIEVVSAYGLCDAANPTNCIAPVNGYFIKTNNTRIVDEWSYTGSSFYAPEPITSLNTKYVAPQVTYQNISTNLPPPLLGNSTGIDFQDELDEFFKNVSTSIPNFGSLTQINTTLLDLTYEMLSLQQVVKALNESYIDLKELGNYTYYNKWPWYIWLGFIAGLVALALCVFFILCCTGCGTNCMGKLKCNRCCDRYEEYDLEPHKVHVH
Sequence of H1N1 viral HA (C3W5S1 entry or part of it, added parts left off): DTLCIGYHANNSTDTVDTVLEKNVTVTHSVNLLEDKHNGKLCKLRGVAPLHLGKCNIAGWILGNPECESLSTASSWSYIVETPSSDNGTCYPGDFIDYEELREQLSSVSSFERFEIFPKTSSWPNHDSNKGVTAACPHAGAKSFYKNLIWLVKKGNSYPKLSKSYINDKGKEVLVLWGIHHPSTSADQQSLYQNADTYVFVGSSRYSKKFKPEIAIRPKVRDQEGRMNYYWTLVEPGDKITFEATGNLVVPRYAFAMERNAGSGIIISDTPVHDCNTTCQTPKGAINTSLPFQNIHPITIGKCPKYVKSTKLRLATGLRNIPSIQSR
Sequence of MERS-CoV S1 (K9N5Q8 18-751 limits assumed): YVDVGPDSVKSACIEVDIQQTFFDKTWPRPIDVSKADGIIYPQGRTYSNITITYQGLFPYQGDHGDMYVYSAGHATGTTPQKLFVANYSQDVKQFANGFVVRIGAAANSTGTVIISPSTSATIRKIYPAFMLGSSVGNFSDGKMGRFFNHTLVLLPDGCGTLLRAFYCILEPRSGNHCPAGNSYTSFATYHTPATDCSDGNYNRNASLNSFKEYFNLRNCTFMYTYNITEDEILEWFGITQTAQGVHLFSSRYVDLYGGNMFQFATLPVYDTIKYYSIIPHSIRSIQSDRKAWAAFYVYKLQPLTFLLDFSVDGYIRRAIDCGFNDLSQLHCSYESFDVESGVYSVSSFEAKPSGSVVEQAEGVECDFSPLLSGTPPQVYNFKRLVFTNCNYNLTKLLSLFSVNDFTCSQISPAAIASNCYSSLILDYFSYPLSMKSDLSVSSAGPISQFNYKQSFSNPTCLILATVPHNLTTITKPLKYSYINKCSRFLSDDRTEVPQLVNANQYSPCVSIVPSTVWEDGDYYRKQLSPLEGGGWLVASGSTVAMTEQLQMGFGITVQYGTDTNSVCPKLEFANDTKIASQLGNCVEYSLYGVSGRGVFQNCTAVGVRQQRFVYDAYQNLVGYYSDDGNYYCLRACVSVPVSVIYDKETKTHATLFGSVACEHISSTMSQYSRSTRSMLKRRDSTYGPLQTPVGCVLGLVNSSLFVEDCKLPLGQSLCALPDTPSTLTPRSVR

In the case of `CC[C@H](C)[C@H](NC(=O)[C@H](C)NC(=O)CNC(=O)[C@@H](N)CC(N)=O)C(=O)N[C@@H](CS)C(=O)N[C@@H](Cc1c[nH]c2ccccc12)C(=O)NCC(=O)N1CCC[C@H]1C(=O)N[C@@H](CS)C(=O)N1CCC[C@H]1C(=O)N[C@H](C(=O)N[C@@H](C)C(=O)N[C@@H](Cc1ccccc1)C(=O)N[C@@H](CCCNC(=N)N)C(=O)N[C@@H](CCC(N)=O)C(=O)N[C@H](C(=O)NCC(=O)N[C@@H](CC(N)=O)C(=O)N[C@@H](CS)C(=O)NCC(=O)N[C@@H](Cc1c[nH]cn1)C(=O)N[C@@H](Cc1ccccc1)C(=O)N[C@@H](CCCCN)C(=O)N[C@H](C(=O)N[C@@H](CCCNC(=N)N)C(=O)N[C@@H](CS)C(=O)N[C@@H](CS)C(=O)N[C@@H](CCCCN)C(=O)N[C@H](C(=O)N[C@@H](CCCNC(=N)N)C(=O)N[C@@H](CC(=O)O)C(=O)N[C@@H](CCC(=O)O)C(=O)N[C@@H](CC(=O)O)C(=O)O)[C@@H](C)CC)C(C)C)[C@@H](C)CC)[C@@H](C)O` [Peptide P9-aci-1] (H-NGAICWGPCPTAFRQIGNCGHFKVRCCKIRDED-OH), the “50% inhibitory concentration (IC50) against H1N1” value in series [1] was greater than 100 mg/L. Besides, in [2], the “pH lowering (acidification) in endosomes” value is recorded as “unaffected”.

With `CO/C1=C\C(C)=C\[C@@H](C)[C@@H](O)[C@@H](C)C/C(C)=C/C=C/[C@H](OC)[C@@H]([C@@H](C)[C@@H](O)[C@H](C)[C@@]2(O)C[C@@H](O)[C@H](C)[C@@H](C(C)C)O2)OC1=O` [Bafilomycin A1, reference compound], in [2], the “pH lowering (acidification) in endosomes” value is reported as “acidification was abolished”.

As to `Cl.N` [NH4Cl, ammonium chloride, reference compound], the “pH lowering (acidification) in endosomes” value in [2] is on record as “acidification was abolished”.

Regarding `CC(=O)N[C@H]1[C@H]([C@H](O)[C@H](O)CO)OC(C(=O)O)=C[C@@H]1N=C(N)N` [Zanamivir, reference compound], in series [3], the “mice protected from lethal H5N1 challenge, prophylaxis” value is recorded as 50% and the “mice protected from lethal H5N1 challenge, therapy” value is recorded as 60%. Also, in [4], the “survival rate, therapeutic” value was found to be 80%. Moreover, in series [5], the “mice protected from lethal H7N9 challenge, prophylaxis” value came out at 60% and the “mice protected from lethal H7N9 challenge, therapy” value is listed as 70%.

For `CC[C@H](C)[C@H](NC(=O)[C@H](C)NC(=O)CNC(=O)[C@@H](N)CC(N)=O)C(=O)N[C@@H](CS)C(=O)N[C@@H](Cc1c[nH]c2ccccc12)C(=O)NCC(=O)N1CCC[C@H]1C(=O)N[C@@H](CS)C(=O)N1CCC[C@H]1C(=O)N[C@H](C(=O)N[C@@H](C)C(=O)N[C@@H](Cc1ccccc1)C(=O)N[C@@H](CCCNC(=N)N)C(=O)N[C@@H](CCC(N)=O)C(=O)N[C@H](C(=O)NCC(=O)N[C@@H](CC(N)=O)C(=O)N[C@@H](CS)C(=O)NCC(=O)N[C@@H](Cc1c[nH]cn1)C(=O)N[C@@H](Cc1ccccc1)C(=O)N[C@@H](CCCCN)C(=O)N[C@H](C(=O)N[C@@H](CCCNC(=N)N)C(=O)N[C@@H](CS)C(=O)N[C@@H](CS)C(=O)N[C@@H](CCCCN)C(=O)N[C@H](C(=O)N[C@@H](CCCNC(=N)N)C(=O)O)[C@@H](C)CC)C(C)C)[C@@H](C)CC)[C@@H](C)O` [Peptide P9] (H-NGAICWGPCPTAFRQIGNCGHFKVRCCKIR-OH), in [1], the “antiviral activity among short peptides” value is “strongest antiviral activity” and the “50% inhibitory concentration (IC50) against H1N1” value turned out to be 1.2 mg/L. Further, the “HA-cell membrane fusion (polykaryon formation)” value in series [6] was “did not directly inhibit”. Moreover, the “pH lowering (acidification) in endosomes” value in series [2] is reported as “acidification was abolished”. In addition, the “solubility and stability in water” value in series [7] was “highly soluble and stable in water”. Besides, in [3], the “mice protected from lethal H5N1 challenge, prophylaxis” value stood at 44% and the “mice protected from lethal H5N1 challenge, therapy” value is given as 50%. For the same compound, in [8], the “food consumption or sickness” value is reported as “no obvious reduction of food consumption or sickness”. For the same compound, the “body weight loss, i.n.” value in [8] (50 mg/kg) is on record as “less than 10%”. The “body weight loss, i.p.” value in [8] (ip, 500 mg/kg) is listed as “less than 10%”. For the same compound, the “binding to NA” value in series [9] is listed as “not NA”. Also, in series [4], the “mice protected from lethal challenge, P9 given 2 h before challenge” value stood at 60%; the “mice protected from lethal challenge, P9 given 4 h before challenge” value worked out at 30%; the “mice protected from lethal challenge, P9 given 8 h before challenge” value was 20%; the “survival rate, prophylactic” value was found to be 100%. For the same compound, in series [4], the “survival rate, therapeutic” value was 60% and the “viral loads in lung tissues” value is given as “significantly lower”. Further, the “inhibition of SARS-CoV infection” value in series [10] is recorded as “more than 95%”. For the same compound, the “IC50 against SARS-CoV” value in [10] (24 h) was “about 5 μg/ml”. Moreover, the “P9 signal on surface of mouse bronchial tubes after administration” value in series [11] is reported as “almost undetectable level”. Besides, the “binding to HA” value in series [12] is reported as “bound to HA”. The “binding to S1 of MERS-CoV” value in series [13] is “not S1”. Also, the “binding to S2 of MERS-CoV” value in [14] is reported as “bound to S2”. Besides, in series [5], the “mice protected from lethal H7N9 challenge, prophylaxis” value was determined as 50% and the “mice protected from lethal H7N9 challenge, therapy” value is recorded as 50%. In addition, the “virus infection in mouse lungs” value in series [15] was “significantly inhibited”. In series [16], the “50% toxic concentration (TC50)” value came to 380 mg/L. The “inhibition of MERS-CoV infection” value in [17] is “more than 95%”. Also, in [17] (24 h), the “IC50 against MERS-CoV” value is “about 5 μg/ml”. Also, the “IC50s against H3N2, H5N1, H7N7 and H7N9” value in [18] fell in the range of 1.5 to 4.8 mg/L.
